Earlier results in patent publication US20250152987A1 (priority 2022, published 2025).

Test system: SARS CoV-2 virus

CN(C)c1ccc2nc3ccc(=[N+](C)C)cc-3sc2c1 [methylene blue]
inactivation of SARS CoV-2 virus: inactivation
